Read-outs that look alike come from different tables or passages of the source.
How the values were obtained:
Format in all cases: in vivo
Diabrotica balteata = Diabrotica balteata (corn root worm) larval test on artificial diet; conditions: same protocol, 200 ppm
Protocol: Diabrotica balteata (Corn Root Worm):
(§1) A 24-well microtiter plate (MTP) with artificial diet was treated with test solutions at an application rate of 200 ppm (concentration in well 18 ppm) by pipetting. After drying, the MTP's were infested with L2 larvae (6-10 per well). After an incubation period of 5 days, samples were checked for larval mortality and growth regulation.

Plutella xylostella = Plutella xylostella (diamond back moth) larval test on artificial diet; conditions: same protocol, 200 ppm
Protocol: Plutella xylostella (Diamond Back Moth):
as §1, with “24-well” for “A 24-well”, “(7-12” for “(6-10”, “6” for “5”

Tetranychus urticae = Tetranychus urticae (two-spotted spider mite) bean leaf disc spray test; conditions: same protocol, 200 ppm
Excerpt: Tetranychus urticae (Two-Spotted Spider Mite):
Bean leaf discs on agar in 24-well microtiter plates were sprayed with test solutions at an application rate of 200 ppm. After drying, the leaf discs are infested with mite populations of mixed ages. 8 days later, discs are checked for egg mortality, larval mortality, and adult mortality.

Thrips tabaci = Thrips tabaci (onion thrips) sunflower leaf disc spray test; conditions: same protocol, 200 ppm
Protocol: Thrips tabaci (Onion Trips):
Sunflower leaf discs were placed on agar in a 24-well microtiter plate and sprayed with test solutions at an application rate of 200 ppm. After drying, the leaf discs were infested with an […] population of mixed ages. After an incubation period of 7 days, samples were checked for mortality.

Heliothis virescens = Heliothis virescens (tobacco budworm) egg test on artificial diet; conditions: same protocol, 200 ppm
Protocol: Heliothis virescens (Tobacco Budworm):
Eggs (0-24 h old) were placed in 24-well microtiter plate on artificial diet and treated with test solutions at an application rate of 200 ppm (concentration in well 18 ppm) by pipetting. After an incubation period of 4 days, samples were checked for egg mortality, larval mortality, and growth regulation.

Spodoptera littoralis = Spodoptera littoralis (Egyptian cotton leafworm) cotton leaf disc spray test; conditions: for damage to the test organisms: same protocol, 200 ppm; for pest or weed control at 200 ppm: foliar, 72 h, read-out: control of Spodoptera littoralis
Excerpt: Spodoptera littoralis (Egyptian Cotton Leafworm):
Cotton leaf discs were placed on agar in a 24-well microtiter plate and sprayed with test solutions at an application rate of 200 ppm. After drying, the leaf discs were infested with 5 L1 larvae. The samples were checked for mortality, feeding behavior, and growth regulation 3 days after treatment (DAT).

[1] = 200 ppm sprayed on cotton leaf discs, L1 larvae, mortality, feeding behavior, growth regulation 3 DAT

Cc1cc(C2=NOC(c3cc(Cl)cc(Cl)c3)(C(F)(F)F)C2)ccc1C(=N)NOCC1CCCCO1 (centres unmarked) [Compound A14]
little or no damage: damage to the test organisms (Diabrotica balteata) | damage to the test organisms (Plutella xylostella) | damage to the test organisms (Tetranychus urticae) | damage to the test organisms (Thrips tabaci) | damage to the test organisms (Heliothis virescens) | damage to the test organisms (Spodoptera littoralis)

Cc1cc(C2=NOC(c3cc(Cl)cc(Cl)c3)(C(F)(F)F)C2)ccc1/C(N)=N/O (centres unmarked) [Compound A1, 4-[5-(3,5-dichloro-phenyl)-5-trifluoromethyl-4,5-dihydro-isoxazol-3-yl]-N-hydroxy-2-methyl-benzamidine]
≥ 80%: pest or weed control at 200 ppm (Spodoptera littoralis; [1])

[H]/N=C(\NOCC#CC)c1ccc(C2=NOC(c3cc(Cl)cc(Cl)c3)(C(F)(F)F)C2)cc1C (centres unmarked) [Compound A25]
≥ 80%: pest or weed control at 200 ppm (Spodoptera littoralis; [1])

C#CCONC(=N)c1ccc(C2=NOC(c3cc(Cl)cc(Cl)c3)(C(F)(F)F)C2)cc1C (centres unmarked) [Compound A2, 4-[5-(3,5-dichloro-phenyl)-5-trifluoromethyl-4,5-dihydro-isoxazol-3-yl]-2-methyl-N-prop-2-ynyloxy-benzamidine]
≥ 80%: pest or weed control at 200 ppm (Spodoptera littoralis)

[H]/N=C(\NOCC=C)c1ccc(C2=NOC(c3cc(Cl)cc(Cl)c3)(C(F)(F)F)C2)cc1C (centres unmarked) [Compound A5]
≥ 80%: pest or weed control at 200 ppm (Spodoptera littoralis; [1])

Cc1cc(C2=NOC(c3cc(Cl)cc(Cl)c3)(C(F)(F)F)C2)ccc1C(=N)NOCC1CCCCC1 (centres unmarked) [Compound A26]
little or no damage: damage to the test organisms (Diabrotica balteata) | damage to the test organisms (Plutella xylostella) | damage to the test organisms (Tetranychus urticae) | damage to the test organisms (Thrips tabaci) | damage to the test organisms (Heliothis virescens) | damage to the test organisms (Spodoptera littoralis)

[H]/N=C(\NOCCCC)c1ccc(C2=NOC(c3cc(Cl)cc(Cl)c3)(C(F)(F)F)C2)cc1C (centres unmarked) [Compound A6]
≥ 80%: pest or weed control at 200 ppm (Spodoptera littoralis; [1])

CCOC(=O)/C=C/CONC(=N)c1ccc(C2=NOC(c3cc(Cl)cc(Cl)c3)(C(F)(F)F)C2)cc1C (centres unmarked) [Compound A13]
little or no damage: damage to the test organisms (Diabrotica balteata) | damage to the test organisms (Plutella xylostella) | damage to the test organisms (Tetranychus urticae) | damage to the test organisms (Thrips tabaci) | damage to the test organisms (Heliothis virescens) | damage to the test organisms (Spodoptera littoralis)

CCOC(=O)c1ccc(CONC(=N)c2ccc(C3=NOC(c4cc(Cl)cc(Cl)c4)(C(F)(F)F)C3)cc2C)o1 (centres unmarked) [Compound A33]
little or no damage: damage to the test organisms (Diabrotica balteata) | damage to the test organisms (Plutella xylostella) | damage to the test organisms (Tetranychus urticae) | damage to the test organisms (Thrips tabaci) | damage to the test organisms (Heliothis virescens) | damage to the test organisms (Spodoptera littoralis)

Cc1cc(C2=NOC(c3cc(Cl)cc(Cl)c3)(C(F)(F)F)C2)ccc1C(=N)NOCc1sc(Cl)nc1C(F)(F)F (centres unmarked) [Compound A32]
little or no damage: damage to the test organisms (Diabrotica balteata) | damage to the test organisms (Plutella xylostella) | damage to the test organisms (Tetranychus urticae) | damage to the test organisms (Thrips tabaci) | damage to the test organisms (Heliothis virescens) | damage to the test organisms (Spodoptera littoralis)

Cc1cc(C2=NOC(c3cc(Cl)cc(Cl)c3)(C(F)(F)F)C2)ccc1C(=N)NOC(C)C(=O)Nc1ccccc1 (centres unmarked) [Compound A24]
little or no damage: damage to the test organisms (Diabrotica balteata) | damage to the test organisms (Plutella xylostella) | damage to the test organisms (Tetranychus urticae) | damage to the test organisms (Thrips tabaci) | damage to the test organisms (Heliothis virescens) | damage to the test organisms (Spodoptera littoralis)

COc1ccc(C(=O)CONC(=N)c2ccc(C3=NOC(c4cc(Cl)cc(Cl)c4)(C(F)(F)F)C3)cc2C)cc1 (centres unmarked) [Compound A28]
little or no damage: damage to the test organisms (Diabrotica balteata) | damage to the test organisms (Plutella xylostella) | damage to the test organisms (Tetranychus urticae) | damage to the test organisms (Thrips tabaci) | damage to the test organisms (Heliothis virescens) | damage to the test organisms (Spodoptera littoralis)

[H]/N=C(\NOCC)c1ccc(C2=NOC(c3cc(Cl)cc(Cl)c3)(C(F)(F)F)C2)cc1C (centres unmarked) [Compound A4]
≥ 80%: pest or weed control at 200 ppm (Spodoptera littoralis; [1])

[H]/N=C(\NOC)c1ccc(C2=NOC(c3cc(Cl)cc(Cl)c3)(C(F)(F)F)C2)cc1C (centres unmarked) [Compound A3]
≥ 80%: pest or weed control at 200 ppm (Spodoptera littoralis; [1])

[H]/N=C(\NOCCC)c1ccc(C2=NOC(c3cc(Cl)cc(Cl)c3)(C(F)(F)F)C2)cc1C (centres unmarked) [Compound A27]
≥ 80%: pest or weed control at 200 ppm (Spodoptera littoralis; [1])

Cc1cc(C2=NOC(c3cc(Cl)cc(Cl)c3)(C(F)(F)F)C2)ccc1C(=N)NOCc1cc(Cl)cc2c1OCOC2 (centres unmarked) [Compound A19]
little or no damage: damage to the test organisms (Diabrotica balteata) | damage to the test organisms (Plutella xylostella) | damage to the test organisms (Tetranychus urticae) | damage to the test organisms (Thrips tabaci) | damage to the test organisms (Heliothis virescens) | damage to the test organisms (Spodoptera littoralis)

From patent publication US8193221B2, “Insecticidal compounds” (Syngenta Crop Protection LLC, priority 2007, dated 2012)
